Positions of bridges follow the written chain, without caps; N, C: chain ends. No end group written: not given here.
Tests used:
[1] = tested on: glaucoma animal model having microbead-induced elevated intraocular pressure; assay: Glaucoma test: intraocular pressure; format: in vivo, mouse; details: for intraocular pressure change: 20 ug/ml applied to eye once daily
Procedure: (§1) For control drug, Taflotan eye drops (Santen Pharmaceutical Co., Ltd.) were used, and for test drug, Taflotan eye drops+HU024 (SEQ ID NO:2) (sample 1), HU024 (SEQ ID NO:2) (sample 2), HU025 (SEQ ID NO:3) (sample 3), HU026 (SEQ ID NO:4) (sample 4), and HU027 (SEQ ID NO:5) (sample 5) were used, and testing was performed on glaucoma animal model having microbead-induced elevated intraocular pressure. In experimental animal model, Rompun solution for injection and zoletil were mixed and used to put the experimental animal under anesthesia, topical anesthetic Alcaine was applied to eye, 1×106 microbead/mL 1 μL was injected into anterior chamber using micro glass needle to induce an increase in intraocular pressure for 2 weeks (IOVS 2011 Vol. 52 36-).
(§2) The control drug and 5 samples were provided to the experimental animal having the elevated intraocular pressure for 2 weeks, 5 samples were applied to eye once daily, comparative verification of efficacy was performed, and intraocular pressure reduction and optic nerve cell in the retina was observed through administration for 4 weeks.
(§3) The intraocular pressure was measured using a contact-type intraocular pressure meter Tono lab's tonometer TV02 model. […] In 5-7 days after fluorescent probe injection, the eye was enucleated and fixed in 4% paraformaldehyde at room temperature for 4 hours. The retina was separated from choroid of the fixed eye and mounted on a slide. In each experimental group slide, optic nerve cell expressing fluorescence was detected using fluorescence microscope, images were taken at a magnification of ×40 and ×200, and data was collected.

[2] = tested on: optic nerve cell in the retina of glaucoma animal model; assay: Glaucoma test: optic nerve cell in the retina (Fluorogold); format: in vivo, mouse; details: applied to eye once daily, Fluorogold labelling
Procedure: as §1, §2, §3

[3] = tested on: hair growth of C57BL/6 mouse; assay: Hair growth test: hair growing area; format: in vivo
Procedure: (§4) This test was conducted to assess the influence on hair growth of C57BL/6 mouse when 4 types of test substances, HU024 (SEQ ID NO:2), HU025 (SEQ ID NO:3), HU026 (SEQ ID NO:4), and HU027 (SEQ ID NO:5), were applied to the skin for 14 days.
(§5) The group design was set to negative control (sterile water for injection G1), test substance HU024 (SEQ ID NO:2) 20 ug/head/day (G2), test substance HU024 (SEQ ID NO:2) 60 ug/head/day (G3), test substance HU025 (SEQ ID NO:3) 20 ug/head/day (G4), test substance HU025 (SEQ ID NO:3) 60 ug/head/day (G5), test substance HU026 (SEQ ID NO:4) 20 ug/head/day (G6), test substance HU026 (SEQ ID NO:4) 60 ug/head/day (G7), test substance HU027 (SEQ ID NO:5) 20 ug/head/day (G8), test substance HU027 (SEQ ID NO:5) 60 ug/head/day (G9) and positive control minoxyl 3% (G10) administered groups. Each group had 10 animals.
(§6) After the animal was put under anesthesia using zoletil (1 mL/kg, i.p), the back of the animal was primarily shaved using a depilator, and Veet depilatory was evenly applied on the back. After about 5 minutes, the applied site was cleaned up using gauze moistened with sterile water for injection. Only animal whose shaved back was scarlet in color was used for group separation. The test substance was applied to the same site daily once per day, 7 times per week for 14 days, and the test substance was evenly applied to the shaved site (on the back) by rubbing with a glass rod about 10 times.
The hair growing area (%) relative to the test substance-applied area was measured and determined, and Image analyzer program (Image Pro Plus ver. 6.3, Cybermetics, USA) was used to measure. […] Imaging was performed together with the measurements on the date when the hair area was measured. On the next day after the end of application, the animals were killed by CO2 gas, and hair on the hair growing area was removed by a depilator and hair weight was measured.
(§7) The measurement results were analyzed using SPSS (ver. 10.1K), Duncan t-test for weight changes was conducted through one-way analysis of variance, hair weight was compared between groups using Student's t-test, and hair growing area was compared between groups through nonparametric multiple comparison procedures Whitney-Mann methods. P<0.05 was determined to be statistically significant.

[4] = Hair growth test: body weight; format: in vivo; details: skin
Procedure: as §4, §5, §6
The test item was measurements of dead animal, general syndrome, weight change, hair growing area and hair weight, and comparison with negative control was conducted.
as §7

[5] = tested on: hair growth of C57BL/6 mouse; assay: Hair growth test: hair weight; format: in vivo
Procedure: as §4, §5, §6
The hair growing area (%) relative to the test substance-applied area was measured and determined, and Image analyzer program (Image Pro Plus ver. 6.3, Cybermetics, USA) was used to measure. It was measured on the 1st, 3rd, 7th, 10th and 14th days after test substance administration. Imaging was performed together with the measurements on the date when the hair area was measured. On the next day after the end of application, the animals were killed by CO2 gas, and hair on the hair growing area was removed by a depilator and hair weight was measured.
as §7

CC(C)OC(=O)CCC/C=C\C[C@@H]1[C@@H](/C=C/C(F)(F)COc2ccccc2)[C@H](O)C[C@@H]1O [Tafluprost, reference compound]
intraocular pressure numerical value ([1]; positive control, eye drops): 15.9±2.9 mmHg | intraocular pressure reduction as compared to negative control ([1]; positive control, eye drops): 20.89% | optic nerve cell death / protection [2]: protection from optic nerve cell death was observed

HU026 (TRGDCDLPEFCP; disulfide 5-11; listed as Homo sapiens)
HAIR AREA (%) ([3]; 20 ug/head/day, Day 1): 0.10 ± 0.05% | HAIR AREA (%) ([3]; 20 ug/head/day, Day 4): 0.13 ± 0.07% | HAIR AREA (%) ([3]; 20 ug/head/day, Day 7): 0.43 ± 0.30% | HAIR AREA (%) ([3]; 20 ug/head/day, Day 10): 7.67 ± 4.54% | HAIR AREA (%) ([3]; 20 ug/head/day, Day 14): 56.64 ± 12.26% | HAIR AREA (%) ([3]; 60 ug/head/day, Day 1): 0.07 ± 0.04% | HAIR AREA (%) ([3]; 60 ug/head/day, Day 4): 0.22 ± 0.13% | HAIR AREA (%) ([3]; 60 ug/head/day, Day 7): 0.69 ± 0.37% | HAIR AREA (%) ([3]; 60 ug/head/day, Day 10): 13.54 ± 4.75% | HAIR AREA (%) ([3]; 60 ug/head/day, Day 14): 65.41 ± 11.62% | intraocular pressure change [1]: the intraocular pressure did not reduce | optic nerve cell death / protection [2]: protection from optic nerve cell death was observed | BODY WEIGHTS ([4]; 20 ug/head/day, Day 1): 21.20 ± 0.77 g | BODY WEIGHTS ([4]; 20 ug/head/day, Day 7): 22.48 ± 1.12 g | BODY WEIGHTS ([4]; 20 ug/head/day, Day 11): 23.75 ± 1.27 g | BODY WEIGHTS ([4]; 60 ug/head/day, Day 1): 21.58 ± 0.61 g | BODY WEIGHTS ([4]; 60 ug/head/day, Day 7): 22.80 ± 1.03 g | BODY WEIGHTS ([4]; 60 ug/head/day, Day 11): 23.83 ± 1.30 g | HAIR WEIGHTS ([5]; 20 ug/head/day for 14 days): 0.021 ± 0.008 g | HAIR WEIGHTS ([5]; 60 ug/head/day for 14 days): 0.026 ± 0.007 g

NH2—RPTRGDCDLPEFCPG—COOH (H-RPTRGDCDLPEFCPG-OH; cysteine pairing not given here; listed as Homo sapiens) [HU025]
HAIR AREA (%) ([3]; 20 ug/head/day, Day 1): 0.04 ± 0.03% | HAIR AREA (%) ([3]; 20 ug/head/day, Day 4): 0.06 ± 0.05% | HAIR AREA (%) ([3]; 20 ug/head/day, Day 7): 0.47 ± 0.22% | HAIR AREA (%) ([3]; 20 ug/head/day, Day 10): 2.04 ± 0.66% | HAIR AREA (%) ([3]; 20 ug/head/day, Day 14): 39.88 ± 8.74% | HAIR AREA (%) ([3]; 60 ug/head/day, Day 1): 0.04 ± 0.04% | HAIR AREA (%) ([3]; 60 ug/head/day, Day 4): 0.42 ± 0.33% | HAIR AREA (%) ([3]; 60 ug/head/day, Day 7): 0.72 ± 0.51% | HAIR AREA (%) ([3]; 60 ug/head/day, Day 10): 19.61 ± 9.01 % | HAIR AREA (%) ([3]; 60 ug/head/day, Day 14): 75.45 ± 6.65 % | intraocular pressure change [1]: had an effect in reducing the intraocular pressure | intraocular pressure change ([1]; listed as sample 3): A reduction in intraocular pressure was observed | optic nerve cell death / protection [2]: protection from optic nerve cell death was observed | BODY WEIGHTS ([4]; 20 ug/head/day, Day 1): 21.20 ± 1.23 g | BODY WEIGHTS ([4]; 20 ug/head/day, Day 7): 22.63 ± 1.01 g | BODY WEIGHTS ([4]; 20 ug/head/day, Day 11): 23.77 ± 1.17 g | BODY WEIGHTS ([4]; 60 ug/head/day, Day 1): 21.53 ± 0.63 g | BODY WEIGHTS ([4]; 60 ug/head/day, Day 7): 23.20 ± 0.83 g | BODY WEIGHTS ([4]; 60 ug/head/day, Day 11): 24.23 ± 1.02 g | HAIR WEIGHTS ([5]; 20 ug/head/day for 14 days): 0.005 ± 0.002 g | HAIR WEIGHTS ([5]; 60 ug/head/day for 14 days): 0.021 ± 0.007 g

NH2—RPTRGDCDL—COOH (H-RPTRGDCDL-OH; listed as Homo sapiens) [HU027]
HAIR AREA (%) ([3]; 20 ug/head/day, Day 1): 0.13 ± 0.13% | HAIR AREA (%) ([3]; 20 ug/head/day, Day 4): 0.32 ± 0.14% | HAIR AREA (%) ([3]; 20 ug/head/day, Day 7): 0.44 ± 0.17% | HAIR AREA (%) ([3]; 20 ug/head/day, Day 10): 8.81 ± 3.57% | HAIR AREA (%) ([3]; 20 ug/head/day, Day 14): 56.95 ± 9.83% | HAIR AREA (%) ([3]; 60 ug/head/day, Day 1): 0.17 ± 0.11% | HAIR AREA (%) ([3]; 60 ug/head/day, Day 4): 0.33 ± 0.22% | HAIR AREA (%) ([3]; 60 ug/head/day, Day 7): 0.50 ± 0.26% | HAIR AREA (%) ([3]; 60 ug/head/day, Day 10): 8.20 ± 3.43% | HAIR AREA (%) ([3]; 60 ug/head/day, Day 14): 61.95 ± 11.30% | BODY WEIGHTS ([4]; 20 ug/head/day, Day 1): 21.71 ± 0.59 g | BODY WEIGHTS ([4]; 20 ug/head/day, Day 7): 23.27 ± 0.71 g | BODY WEIGHTS ([4]; 20 ug/head/day, Day 11): 23.98 ± 0.79 g | BODY WEIGHTS ([4]; 60 ug/head/day, Day 1): 21.77 ± 0.87 g | BODY WEIGHTS ([4]; 60 ug/head/day, Day 7): 23.07 ± 1.13 g | BODY WEIGHTS ([4]; 60 ug/head/day, Day 11): 23.97 ± 1.14 g | HAIR WEIGHTS ([5]; 20 ug/head/day for 14 days): 0.010 ± 0.003 g | HAIR WEIGHTS ([5]; 60 ug/head/day for 14 days): 0.016 ± 0.005 g

Source: US10632181B2, “Composition, containing RGD motif-containing peptide or fragment thereof, for treating burns and glaucoma, alleviating skin wrinkles, and promoting hair growth” (HUONS CO., LTD., priority 2014, dated 2020)
